Here are results for one compound from patent publication US8093231B2, “Sulfonylethyl phosphorodiamidates” (Telik, Inc., priority 2004, dated 2012).

The structures appear in SMILES notation.

In the data set the test system is MX-1, DLD-1 and LNCap cells. In words: Cytotoxicity/growth inhibition assay, cell line not specified for the statement. The text has this: The human cancer cell lines DLD-1 (colorectal adenocarcinoma), LNCap (prostate carcinoma), and OVCAR-3 (ovarian carcinoma) were obtained from the American Type Culture Collection, Manassas, Va., U.S.A., and HL-60 (promyeloid myelocytic leukemia), MX-1 (breast carcinoma), P388, and P388ADR from the National Cancer Institute, Bethesda, Md., U.S.A. Carboplatin, doxorubicin, and melphalan were obtained from Sigma-Aldrich Chemical Company, St. Louis, Mo., U.S.A. The CellTiter-Glo assay kit was obtained from Promega Corporation, Madison, Wis., U.S.A., and the Cellular DNA Cytometric Analysis Reagent Kit from Roche Diagnostics Corporation, Indianapolis, Ind., U.S.A. Lambda DNA was obtained from New England Biolabs, Beverly, Mass., U.S.A., and SYBR-Gold from Molecular Probes, Inc., Eugene, Oreg., U.S.A. The DNeasy Tissue Kit was obtained from Qiagen Inc., Valencia, Calif., U.S.A., and AmpliTaq Gold DNA polymerase and PCR reagents from Applied Biosystems, Foster City, Calif., U.S.A. All products were used in accordance with manufacturer's directions. […] The extent of cell growth was expressed as a percentage of the signal from the solvent control wells.
Log-phase cells were trypsinized, collected by centrifugation, and resuspended in a small volume of fresh medium, and the density of viable cells was determined following Trypan Blue staining. […]

On to `O=P(OCCSCCOP(=O)(N(CCCl)CCCl)N(CCCl)CCCl)(N(CCCl)CCCl)N(CCCl)CCCl` [Compound 1CC, di[2-[[bis[bis(2-chloroethyl)amino]phosphinyl]oxy]ethyl]sulfide], for which the “activity in cytotoxicity/growth inhibition assay” value was “active”.
